The values that follow come from ChEMBL document CHEMBL3526033, “Identification of human liver cytochrome P450 enzymes involved in the metabolism of SCH 530348 (Vorapaxar), a potent oral thrombin protease-activated receptor 1 antagonist” (Drug Metab Dispos, 2011).

Common to all, as to assay type: ADME
One series concerns the target Cytochrome P450 4F2 (Homo sapiens, UniProt P78329). Kind of series: Activity of human recombinant CYP4F2 assessed as enzyme-mediated drug metabolism treated with 25 uM vorapaxar after 120 mins by LC-MS/MS analysis in presence of NADPH. Particulars: 2 h.
In a further series the target is T1, Cytochrome P450 2B6 (Homo sapiens, UniProt P20813).
T1 sequence (P20813 whole entry): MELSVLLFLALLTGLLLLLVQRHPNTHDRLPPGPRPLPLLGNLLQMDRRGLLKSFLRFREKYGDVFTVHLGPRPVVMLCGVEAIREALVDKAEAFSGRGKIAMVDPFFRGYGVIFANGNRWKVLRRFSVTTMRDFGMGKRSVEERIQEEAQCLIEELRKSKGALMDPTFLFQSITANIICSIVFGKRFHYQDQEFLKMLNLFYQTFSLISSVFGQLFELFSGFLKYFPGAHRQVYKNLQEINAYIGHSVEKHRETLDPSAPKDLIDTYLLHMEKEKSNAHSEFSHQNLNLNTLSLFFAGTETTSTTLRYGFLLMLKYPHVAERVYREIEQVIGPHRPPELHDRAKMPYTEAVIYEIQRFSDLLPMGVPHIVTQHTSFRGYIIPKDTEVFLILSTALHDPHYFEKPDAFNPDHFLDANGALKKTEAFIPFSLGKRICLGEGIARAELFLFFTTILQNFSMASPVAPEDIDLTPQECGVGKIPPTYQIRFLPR
Description: Activity of human recombinant CYP2B6 assessed as enzyme-mediated 2-hydroxyethyl (1R,3aR,4aR,6R,8aR,9S,9aS)-9-((E)-2-(5-(3-fluorophenyl)pyridin-2-yl)vinyl)-1-methyl-3-oxododecahydronaphtho[2,3-c]furan-6-ylcarbamate formation at 25 uM after 120 mins by LC-MS/MS analysis in presence of NADPH. Particulars: 2 h.

Another series has as its target Cytochrome P450 2C19 (Homo sapiens, UniProt P33261). Kind of series: Activity of human recombinant CYP2C19 assessed as enzyme-mediated drug metabolism at 10 uM after 120 mins by LC-MS/MS analysis. The following applies: 2 h.
In series [1] the test system is Liver microsome. Kind of series: Drug metabolism in human liver microsomes assessed as (3R,3aS,4S,4aR,7R,8aR,9aR)-7-amino-4-((E)-2-(5-(3-fluorophenyl)pyridin-2-yl)vinyl)-3-methyldecahydronaphtho[2,3-c]furan-1(3H)-one formation per nmol of enzyme at 25 uM after 120 mins by LC-MS/MS analysis. The following applies: 2 h.
A further series has as its target Cytochrome P450 2C18 (Homo sapiens, UniProt P33260). Description: Activity of human recombinant CYP2C18 assessed as enzyme-mediated 2-hydroxyethyl (1R,3aR,4aR,6R,8aR,9S,9aS)-9-((E)-2-(5-(3-fluorophenyl)pyridin-2-yl)vinyl)-1-methyl-3-oxododecahydronaphtho[2,3-c]furan-6-ylcarbamate formation at 25 uM after 120 mins by LC-MS/MS analysis in presence of NADPH. Particulars: 2 h.

A further series has as its target T2, Cytochrome P450 1A1 (Homo sapiens, UniProt P04798).
T2 sequence (P04798 whole entry): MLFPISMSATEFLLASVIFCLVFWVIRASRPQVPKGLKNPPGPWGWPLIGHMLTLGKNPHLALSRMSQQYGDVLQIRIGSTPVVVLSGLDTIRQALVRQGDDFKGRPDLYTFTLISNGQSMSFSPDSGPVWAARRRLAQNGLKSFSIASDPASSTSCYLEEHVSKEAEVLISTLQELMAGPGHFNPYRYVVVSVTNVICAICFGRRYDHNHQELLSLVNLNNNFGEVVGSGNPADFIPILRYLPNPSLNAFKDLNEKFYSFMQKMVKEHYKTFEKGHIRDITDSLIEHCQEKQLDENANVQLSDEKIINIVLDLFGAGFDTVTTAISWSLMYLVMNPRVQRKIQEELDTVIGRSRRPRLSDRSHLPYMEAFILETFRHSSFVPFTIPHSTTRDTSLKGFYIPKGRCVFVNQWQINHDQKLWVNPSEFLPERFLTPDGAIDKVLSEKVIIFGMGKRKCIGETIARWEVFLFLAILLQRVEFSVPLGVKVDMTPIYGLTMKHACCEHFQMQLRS
Kind of series: Activity of human recombinant CYP1A1 assessed as enzyme-mediated (3R,3aS,4S,4aR,7R,8aR,9aR)-7-amino-4-((E)-2-(5-(3-fluorophenyl)pyridin-2-yl)vinyl)-3-methyldecahydronaphtho[2,3-c]furan-1(3H)-one formation at 25 uM after 120 mins by LC-MS/MS analysis in presence of NADPH. Particulars: 2 h.

Another series addresses Cytochrome P450 4F12 (Homo sapiens, UniProt Q9HCS2). Description: Activity of human recombinant CYP4F12 assessed as enzyme-mediated 2-hydroxyethyl (1R,3aR,4aR,6R,8aR,9S,9aS)-9-((E)-2-(5-(3-fluorophenyl)pyridin-2-yl)vinyl)-1-methyl-3-oxododecahydronaphtho[2,3-c]furan-6-ylcarbamate formation at 25 uM after 120 mins by LC-MS/MS analysis in presence of NADPH. Particulars: 2 h.

The target in another series is Cytochrome P450 2A6 (Homo sapiens, UniProt P11509). Description: Activity of human recombinant CYP2A6 assessed as enzyme-mediated 2-hydroxyethyl (1R,3aR,4aR,6R,8aR,9S,9aS)-9-((E)-2-(5-(3-fluorophenyl)pyridin-2-yl)vinyl)-1-methyl-3-oxododecahydronaphtho[2,3-c]furan-6-ylcarbamate formation at 25 uM after 120 mins by LC-MS/MS analysis in presence of NADPH. The following applies: 2 h.

For a further series, the target named is Cytochrome P450 2D6 (Homo sapiens, UniProt P10635). Description: Activity of human recombinant CYP2D6 assessed as enzyme-mediated 2-hydroxyethyl (1R,3aR,4aR,6R,8aR,9S,9aS)-9-((E)-2-(5-(3-fluorophenyl)pyridin-2-yl)vinyl)-1-methyl-3-oxododecahydronaphtho[2,3-c]furan-6-ylcarbamate formation at 25 uM after 120 mins by LC-MS/MS analysis in presence of NADPH. Particulars: 2 h.

The test system of series [2] is Liver microsome. Description: Drug metabolism in human liver microsomes assessed as (3R,3aS,4S,4aR,7R,8aR,9aR)-7-amino-4-((E)-2-(5-(3-fluorophenyl)pyridin-2-yl)vinyl)-3-methyldecahydronaphtho[2,3-c]furan-1(3H)-one formation at 10 to 25 uM after 120 mins by LC-MS/MS analysis in presence of sulfaphenazole. The following applies: 2 h. A general note: Liver microsomes are vesicles of endoplasmic reticulum, rich in cytochrome P450 enzymes.

The nature of series [3]: Drug metabolism in human intestine microsomes assessed as ((4aR,6R)-9-{2-[(1R,4S)-5-((S)-3-Fluoro-phenyl)-pyridin-2-yl]-vinyl}-1-methyl-3-oxo-dodecahydro-naphtho[2,3-c]furan-6-yl)-carbamic acid(R)-2-hydroxy-ethyl ester formation by LC-MS/MS analysis in presence of 100 uM astemizole.
The subject of series [4] is Liver microsome. Kind of series: Drug metabolism in human liver microsomes assessed as (3R,3aS,4S,4aR,7R,8aR,9aR)-7-amino-4-((E)-2-(5-(3-fluorophenyl)pyridin-2-yl)vinyl)-3-methyldecahydronaphtho[2,3-c]furan-1(3H)-one formation at 10 to 25 uM after 120 mins by LC-MS/MS analysis in presence of alpha-napthoflavone. The following applies: 2 h.
The target in a further series is CYP3A4 (Homo sapiens, UniProt P08684). Description: Activity of human recombinant CYP3A4 assessed as enzyme-mediated drug metabolism at 10 uM after 120 mins by LC-MS/MS analysis in presence of NADPH. The following applies: read-out: Compound recovery.

Molecules are shown by their SMILES.

For orientation: Vmax means the top rate of the reaction or transport when substrate is in excess.

Sequence of CYP3A4 (P08684 whole entry): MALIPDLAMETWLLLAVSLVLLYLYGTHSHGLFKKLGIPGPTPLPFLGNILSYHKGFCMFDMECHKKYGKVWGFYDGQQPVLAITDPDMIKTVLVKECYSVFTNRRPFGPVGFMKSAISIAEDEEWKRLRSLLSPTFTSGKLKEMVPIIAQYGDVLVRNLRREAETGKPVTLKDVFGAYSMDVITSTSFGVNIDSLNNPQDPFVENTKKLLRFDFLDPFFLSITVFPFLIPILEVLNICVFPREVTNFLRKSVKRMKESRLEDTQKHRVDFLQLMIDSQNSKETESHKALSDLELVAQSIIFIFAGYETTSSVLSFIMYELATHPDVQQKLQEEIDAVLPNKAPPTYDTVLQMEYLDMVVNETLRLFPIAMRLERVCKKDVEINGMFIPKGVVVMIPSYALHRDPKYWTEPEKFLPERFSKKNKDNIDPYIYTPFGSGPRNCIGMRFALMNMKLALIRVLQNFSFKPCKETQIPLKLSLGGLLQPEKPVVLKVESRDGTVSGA
Sequence of Cytochrome P450 4F12 (Q9HCS2 whole entry): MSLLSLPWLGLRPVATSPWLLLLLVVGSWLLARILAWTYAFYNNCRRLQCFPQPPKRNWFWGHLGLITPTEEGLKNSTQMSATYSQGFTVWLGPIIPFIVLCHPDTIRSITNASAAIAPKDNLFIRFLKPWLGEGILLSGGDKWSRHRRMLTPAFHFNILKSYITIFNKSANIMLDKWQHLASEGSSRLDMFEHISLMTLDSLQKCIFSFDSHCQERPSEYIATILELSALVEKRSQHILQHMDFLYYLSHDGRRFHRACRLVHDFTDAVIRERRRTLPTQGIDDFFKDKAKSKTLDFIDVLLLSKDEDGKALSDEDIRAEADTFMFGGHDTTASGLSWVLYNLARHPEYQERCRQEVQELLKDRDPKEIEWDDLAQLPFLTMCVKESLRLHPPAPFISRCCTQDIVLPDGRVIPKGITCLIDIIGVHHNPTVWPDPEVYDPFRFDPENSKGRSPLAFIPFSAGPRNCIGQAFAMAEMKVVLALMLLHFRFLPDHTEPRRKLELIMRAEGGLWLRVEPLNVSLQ
Sequence of Cytochrome P450 2D6 (P10635 whole entry): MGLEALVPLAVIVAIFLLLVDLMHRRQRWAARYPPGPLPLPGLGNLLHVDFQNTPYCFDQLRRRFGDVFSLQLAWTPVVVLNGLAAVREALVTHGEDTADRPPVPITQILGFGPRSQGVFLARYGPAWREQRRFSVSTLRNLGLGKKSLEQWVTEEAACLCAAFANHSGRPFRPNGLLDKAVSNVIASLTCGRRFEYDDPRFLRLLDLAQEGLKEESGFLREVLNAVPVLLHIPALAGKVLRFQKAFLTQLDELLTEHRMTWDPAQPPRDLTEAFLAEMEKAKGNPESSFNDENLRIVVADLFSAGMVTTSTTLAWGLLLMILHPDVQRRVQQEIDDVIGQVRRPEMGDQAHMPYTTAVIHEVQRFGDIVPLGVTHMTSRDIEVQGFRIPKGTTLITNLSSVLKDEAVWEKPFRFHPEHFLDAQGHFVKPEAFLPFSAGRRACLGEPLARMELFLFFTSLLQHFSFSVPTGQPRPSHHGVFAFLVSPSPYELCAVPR
Sequence of Cytochrome P450 4F2 (P78329 whole entry): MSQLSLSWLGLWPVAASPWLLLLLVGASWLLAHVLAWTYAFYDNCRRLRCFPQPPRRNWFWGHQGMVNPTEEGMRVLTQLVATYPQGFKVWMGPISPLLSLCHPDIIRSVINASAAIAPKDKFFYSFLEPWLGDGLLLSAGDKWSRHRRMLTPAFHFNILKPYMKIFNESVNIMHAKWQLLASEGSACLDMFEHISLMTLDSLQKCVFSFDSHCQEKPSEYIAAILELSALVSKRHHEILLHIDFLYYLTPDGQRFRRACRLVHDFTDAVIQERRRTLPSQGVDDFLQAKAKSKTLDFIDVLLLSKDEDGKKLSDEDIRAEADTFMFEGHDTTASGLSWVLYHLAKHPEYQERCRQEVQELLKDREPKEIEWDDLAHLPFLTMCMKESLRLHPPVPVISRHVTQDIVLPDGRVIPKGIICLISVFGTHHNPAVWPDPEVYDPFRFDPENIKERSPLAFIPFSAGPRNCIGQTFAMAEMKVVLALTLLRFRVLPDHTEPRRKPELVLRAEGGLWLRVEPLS
Sequence of Cytochrome P450 2C19 (P33261 whole entry): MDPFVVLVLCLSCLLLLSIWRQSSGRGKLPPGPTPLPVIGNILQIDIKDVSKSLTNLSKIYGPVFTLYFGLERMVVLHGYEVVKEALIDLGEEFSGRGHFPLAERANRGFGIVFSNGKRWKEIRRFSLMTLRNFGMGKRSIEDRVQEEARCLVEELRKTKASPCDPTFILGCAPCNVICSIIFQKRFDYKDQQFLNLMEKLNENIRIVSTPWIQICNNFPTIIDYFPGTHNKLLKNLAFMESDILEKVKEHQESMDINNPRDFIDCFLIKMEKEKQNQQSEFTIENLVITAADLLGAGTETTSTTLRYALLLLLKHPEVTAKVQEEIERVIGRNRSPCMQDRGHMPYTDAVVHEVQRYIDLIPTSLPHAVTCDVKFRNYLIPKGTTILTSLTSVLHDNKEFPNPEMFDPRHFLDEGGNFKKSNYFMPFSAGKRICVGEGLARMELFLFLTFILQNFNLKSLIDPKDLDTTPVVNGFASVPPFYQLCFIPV
Sequence of Cytochrome P450 2A6 (P11509 whole entry): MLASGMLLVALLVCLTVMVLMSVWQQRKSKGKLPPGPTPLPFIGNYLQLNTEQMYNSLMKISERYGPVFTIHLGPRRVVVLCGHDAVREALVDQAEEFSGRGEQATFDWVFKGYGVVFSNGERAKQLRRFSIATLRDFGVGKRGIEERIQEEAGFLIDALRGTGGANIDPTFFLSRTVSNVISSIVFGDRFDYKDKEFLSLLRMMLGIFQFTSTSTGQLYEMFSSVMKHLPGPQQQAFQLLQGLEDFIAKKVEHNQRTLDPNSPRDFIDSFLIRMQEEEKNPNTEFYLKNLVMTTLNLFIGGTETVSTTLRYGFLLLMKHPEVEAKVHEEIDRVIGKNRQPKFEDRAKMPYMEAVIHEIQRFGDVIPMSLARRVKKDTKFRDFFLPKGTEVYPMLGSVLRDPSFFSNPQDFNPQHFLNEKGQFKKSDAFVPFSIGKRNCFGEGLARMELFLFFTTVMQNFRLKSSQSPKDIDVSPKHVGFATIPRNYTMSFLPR
Sequence of Cytochrome P450 2C18 (P33260 whole entry): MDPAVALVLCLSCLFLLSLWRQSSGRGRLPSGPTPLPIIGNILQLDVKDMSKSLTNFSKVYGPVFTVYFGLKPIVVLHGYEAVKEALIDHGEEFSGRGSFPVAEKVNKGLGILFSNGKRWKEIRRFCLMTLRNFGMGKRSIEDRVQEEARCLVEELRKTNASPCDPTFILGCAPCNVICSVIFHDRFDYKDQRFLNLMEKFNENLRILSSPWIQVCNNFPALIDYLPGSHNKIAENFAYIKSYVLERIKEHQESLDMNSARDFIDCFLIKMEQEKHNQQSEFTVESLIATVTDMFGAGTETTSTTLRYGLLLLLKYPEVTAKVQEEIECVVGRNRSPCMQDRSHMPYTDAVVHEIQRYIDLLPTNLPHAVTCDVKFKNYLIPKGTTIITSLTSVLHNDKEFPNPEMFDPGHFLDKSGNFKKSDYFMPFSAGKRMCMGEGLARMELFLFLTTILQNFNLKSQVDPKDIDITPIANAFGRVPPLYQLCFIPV

Regarding `C[C@H]1OC(=O)[C@@H]2C[C@@H]3C[C@H](NC(=O)OCCO)CC[C@H]3[C@H](/C=C/c3ccc(-c4cccc(F)c4)cn3)[C@H]12`, the Drug metabolism result at Cytochrome P450 4F2 is recorded as “metabolite_detected”.
In the case of `CCOC(=O)N[C@@H]1CC[C@@H]2[C@@H](C1)C[C@H]1C(=O)O[C@H](C)[C@H]1[C@H]2/C=[14CH]/c1ccc(-c2cccc(F)c2)cn1`, the Drug metabolism result on Cytochrome P450 2B6 is “metabolite_detected”; on Cytochrome P450 2C19, “metabolite_not_detected”; at Cytochrome P450 2C18, “metabolite_detected”; at Cytochrome P450 1A1 it was “metabolite_detected”; on Cytochrome P450 4F12, “metabolite_detected”; on Cytochrome P450 2A6, “metabolite_detected”. Also, the Drug metabolism result on Cytochrome P450 2D6 is “metabolite_detected”. In the series with Liver microsome [1], the Vmax is 30 pmol/min.
Take `CCOC(=O)N[C@@H]1CC[C@@H]2[C@@H](C1)C[C@H]1C(=O)O[C@H](C)[C@H]1[C@H]2/C=C/c1ccc(-c2cccc(F)c2)cn1` [VORAPAXAR]: the Drug metabolism result with Liver microsome [2] and in the series with Liver microsome [4] was “metabolite_detected” each time. Besides, in series [3], the “inhibition (INH)” value was determined as 77%. In addition, the remaining at 2 h, 10 µM at CYP3A4 was determined as 72.5%.
